Legend:
[1] = target: estrogen receptor alpha (hERα) (Homo sapiens, UniProt P03372); assay: competitive displacement of [3H]-E2 radioligand, filter binding
[2] = target: estrogen receptor beta (hERβ) (Homo sapiens, UniProt Q92731); assay: as above
estrogen receptor beta (hERβ), sequence (Q92731 whole entry): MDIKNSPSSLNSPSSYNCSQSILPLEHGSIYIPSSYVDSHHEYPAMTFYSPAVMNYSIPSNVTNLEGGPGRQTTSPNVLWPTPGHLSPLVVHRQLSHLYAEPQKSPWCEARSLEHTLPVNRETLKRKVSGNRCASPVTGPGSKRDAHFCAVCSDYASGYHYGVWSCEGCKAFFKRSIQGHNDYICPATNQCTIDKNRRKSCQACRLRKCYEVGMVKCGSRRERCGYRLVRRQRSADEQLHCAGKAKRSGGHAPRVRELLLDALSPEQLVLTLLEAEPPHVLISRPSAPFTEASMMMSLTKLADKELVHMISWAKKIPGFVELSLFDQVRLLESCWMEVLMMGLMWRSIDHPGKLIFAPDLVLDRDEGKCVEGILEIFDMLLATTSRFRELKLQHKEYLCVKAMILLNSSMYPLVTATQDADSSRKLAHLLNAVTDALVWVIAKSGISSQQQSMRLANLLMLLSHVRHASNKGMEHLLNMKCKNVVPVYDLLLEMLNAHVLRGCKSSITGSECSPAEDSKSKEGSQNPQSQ

estrogen receptor alpha (hERα), sequence (P03372 whole entry): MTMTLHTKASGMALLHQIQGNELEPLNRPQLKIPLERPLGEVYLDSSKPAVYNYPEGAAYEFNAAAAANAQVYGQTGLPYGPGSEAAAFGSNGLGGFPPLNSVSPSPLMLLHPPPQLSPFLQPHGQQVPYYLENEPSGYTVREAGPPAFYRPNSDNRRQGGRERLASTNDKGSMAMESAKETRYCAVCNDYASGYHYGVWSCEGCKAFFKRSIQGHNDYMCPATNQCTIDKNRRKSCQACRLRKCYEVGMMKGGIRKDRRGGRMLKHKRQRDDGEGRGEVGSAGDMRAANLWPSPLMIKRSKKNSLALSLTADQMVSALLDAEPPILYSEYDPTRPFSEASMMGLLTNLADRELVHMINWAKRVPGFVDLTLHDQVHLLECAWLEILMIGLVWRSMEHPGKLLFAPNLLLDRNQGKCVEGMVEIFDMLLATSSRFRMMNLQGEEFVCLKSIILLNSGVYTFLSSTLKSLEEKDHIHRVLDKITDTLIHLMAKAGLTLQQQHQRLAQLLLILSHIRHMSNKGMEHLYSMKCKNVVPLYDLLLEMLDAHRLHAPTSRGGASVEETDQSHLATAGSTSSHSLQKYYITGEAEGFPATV

IC50 [1]: 65.7 µM
IC50 [2]: 38 µM
SMILES: CC(C)=CCc1cc2c(cc1O)O[C@H](c1ccc(O)cc1)CC2=O [bavachin]

— PMC3792216 (Biomolecules & Therapeutics, 2012)
